Legend:
[1] = tested on: Human immunodeficiency virus 1; assay: microbe, parasite or virus in culture; conditions: Human immunodeficiency virus 1, Ba-L, PM1, 120 h
Description: Antiviral activity against CCR5-dependent HIV1 Ba-L infected in human PM1 cells assessed as reduction in virus infection measured after 5 days by luciferase reporter gene assay

[2] = Half life in Sprague-Dawley rat at 10 mg/kg, iv by LC-MS/MS analysis; assay type: ADME, organism-based; conditions: in vivo
[3] = Cmax in Sprague-Dawley rat at 20 mg/kg, po by LC-MS/MS analysis; assay type: ADME, organism-based; set-up: dose 20 mg/kg, route oral; conditions: in vivo
[4] = Cytotoxicity against human TZM-bl cells after 48 hrs by MTT assay; assay type: cell-based
[5] = AUC (0 to infinity) in Sprague-Dawley rat at 20 mg/kg, po by LC-MS/MS analysis; assay type: ADME, organism-based; set-up: dose 20 mg/kg, route oral, time infinity; conditions: in vivo
Cytochrome P450 3A4 [6] = molecular target: T1, Cytochrome P450 3A4 (Homo sapiens, UniProt P08684); assay: Inhibition of CYP3A4 (unknown origin) using testosterone as substrate; assay type: ADME
T1 sequence (P08684 whole entry): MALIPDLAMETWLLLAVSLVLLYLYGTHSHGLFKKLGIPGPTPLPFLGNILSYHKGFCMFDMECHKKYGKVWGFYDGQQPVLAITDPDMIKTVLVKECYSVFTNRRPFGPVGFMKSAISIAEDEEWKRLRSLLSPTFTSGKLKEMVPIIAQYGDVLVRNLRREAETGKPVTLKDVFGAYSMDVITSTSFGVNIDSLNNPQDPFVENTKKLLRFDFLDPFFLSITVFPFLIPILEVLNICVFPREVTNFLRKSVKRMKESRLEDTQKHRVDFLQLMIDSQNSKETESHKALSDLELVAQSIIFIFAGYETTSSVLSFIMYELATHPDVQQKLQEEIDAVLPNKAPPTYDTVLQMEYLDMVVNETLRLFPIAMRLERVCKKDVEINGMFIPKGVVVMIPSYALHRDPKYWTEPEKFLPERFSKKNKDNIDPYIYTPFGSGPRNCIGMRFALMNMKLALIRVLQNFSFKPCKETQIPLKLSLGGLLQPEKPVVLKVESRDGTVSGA

[7] = Tmax in Sprague-Dawley rat at 10 mg/kg, iv by LC-MS/MS analysis; assay type: ADME, organism-based; conditions: in vivo
[8] = AUC (0 to infinity) in Sprague-Dawley rat at 10 mg/kg, iv by LC-MS/MS analysis; assay type: ADME, organism-based; set-up: dose 10 mg/kg, time infinity, route intravenous; conditions: in vivo
in vitro [9] = conditions: human, HOS cells
Description: Therapeutic index, ratio of CC50 for human HOS cells to IC50 for CCR5-dependent HIV1 SF162 infected in human HOS cells

[10] = tested on: Human immunodeficiency virus 1; assay: microbe, parasite or virus in culture; conditions: Human immunodeficiency virus 1, KM018, PBMC, 168 h
Description: Antiviral activity against CCR5-dependent HIV1 KM018 infected in human PBMC assessed as reduction in virus infection measured after 7 days by luciferase reporter gene assay

in vitro [11] = conditions: human, PM1 cells
Description: Therapeutic index, ratio of CC50 for human PM1 cells to IC50 for CCR5-dependent HIV1 Ba-L infected in human PM1 cells

in vitro [12] = conditions: human, PBMC
Description: Therapeutic index, ratio of CC50 for human PBMC to IC50 for CCR5-dependent HIV1 KM018 infected in human PBMC

[13] = Tmax in Sprague-Dawley rat at 20 mg/kg, po by LC-MS/MS analysis; assay type: ADME, organism-based; conditions: in vivo
in vitro [14] = conditions: human, PBMC; remark: listed apart in the source
Description: Therapeutic index, ratio of CC50 for human PBMC to IC50 for CCR5-dependent HIV1 SF162 infected in human PBMC cells

[15] = Clearance in Sprague-Dawley rat at 10 mg/kg, iv by LC-MS/MS analysis; assay type: ADME, organism-based; conditions: in vivo
Cytochrome P450 2C19 = Cytochrome P450 2C19 (Homo sapiens, UniProt P33261); assay: Inhibition of CYP2C19 (unknown origin); assay type: ADME
Sequence of Cytochrome P450 2C19 (P33261 whole entry): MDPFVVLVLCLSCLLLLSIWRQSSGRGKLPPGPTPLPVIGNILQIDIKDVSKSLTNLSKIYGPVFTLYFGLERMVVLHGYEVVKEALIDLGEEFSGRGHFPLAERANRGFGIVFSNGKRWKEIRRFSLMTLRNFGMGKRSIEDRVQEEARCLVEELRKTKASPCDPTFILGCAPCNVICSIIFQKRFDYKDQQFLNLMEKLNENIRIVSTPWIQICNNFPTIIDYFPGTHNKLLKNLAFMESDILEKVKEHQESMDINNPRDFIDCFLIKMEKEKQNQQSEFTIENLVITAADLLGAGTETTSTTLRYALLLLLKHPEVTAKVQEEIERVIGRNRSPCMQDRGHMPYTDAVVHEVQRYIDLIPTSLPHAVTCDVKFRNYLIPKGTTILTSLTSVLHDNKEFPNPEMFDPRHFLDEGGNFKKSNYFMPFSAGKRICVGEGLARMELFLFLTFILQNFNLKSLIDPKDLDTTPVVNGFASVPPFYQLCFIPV

Cytochrome P450 3A4 [16] = molecular target: T1, Cytochrome P450 3A4; assay: Inhibition of CYP3A4 (unknown origin) using midazolam as substrate; assay type: ADME
[17] = tested on: Human immunodeficiency virus 1; assay: microbe, parasite or virus in culture; conditions: Human immunodeficiency virus 1, SF162, TZM-bl, 48 h
Description: Antiviral activity against CCR5-dependent HIV1 SF162 infected in human TZM-bl cells assessed as reduction in virus infection measured after 48 hrs post infection by luciferase reporter gene assay

[18] = Half life in Sprague-Dawley rat at 20 mg/kg, po by LC-MS/MS analysis; assay type: ADME, organism-based; conditions: in vivo
[19] = molecular target: C-C chemokine receptor type 5 (Homo sapiens, UniProt P51681); assay: Antagonist activity at CCR5 (unknown origin) expressed in HEK293 cells co-expressing Galpha16 assessed as inhibition of RANTES-induced calcium flux preincubated for 10 mins followed by RANTES addition by fluo-4AM-based fluorescence assay; assay type: functional, cell-based
Sequence of C-C chemokine receptor type 5 (P51681 whole entry): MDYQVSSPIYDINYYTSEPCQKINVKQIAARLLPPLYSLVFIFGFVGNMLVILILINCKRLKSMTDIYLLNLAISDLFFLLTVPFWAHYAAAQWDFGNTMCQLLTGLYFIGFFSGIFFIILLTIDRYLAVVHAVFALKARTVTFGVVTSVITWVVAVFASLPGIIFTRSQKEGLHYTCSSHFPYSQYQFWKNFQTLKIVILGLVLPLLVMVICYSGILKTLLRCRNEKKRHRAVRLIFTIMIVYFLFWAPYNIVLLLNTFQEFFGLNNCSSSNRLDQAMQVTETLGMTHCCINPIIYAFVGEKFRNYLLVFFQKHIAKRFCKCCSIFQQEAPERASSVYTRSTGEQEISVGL

[20] = Cmax in Sprague-Dawley rat at 10 mg/kg, iv by LC-MS/MS analysis; assay type: ADME, organism-based; set-up: dose 10 mg/kg, route intravenous; conditions: in vivo
in vitro [21] = conditions: human, TZM-bl cells
Description: Therapeutic index, ratio of CC50 for human TZM-bl cells to EC50 for CCR5-dependent HIV1 SF162 infected in human TZM-bl cells

in vitro [22] = conditions: human, HOS cells; remark: listed apart in the source
Description: Therapeutic index, ratio of CC50 for human HOS cells to IC50 for CCR5-dependent HIV1 Ba-L infected in human HOS cells

in vitro [23] = conditions: human, PBMC; remark: listed apart in the source
Description: Therapeutic index, ratio of CC50 for human PBMC to IC50 for CCR5-dependent HIV1 Ba-L infected in human PBMC

[24] = tested on: Human immunodeficiency virus 1; assay: microbe, parasite or virus in culture; conditions: Human immunodeficiency virus 1, SF162, PBMC, 168 h
Description: Antiviral activity against CCR5-dependent HIV1 SF162 infected in human PBMC assessed as reduction in virus infection measured after 7 days by luciferase reporter gene assay

Cytochrome P450 1A2 = molecular target: T2, Cytochrome P450 1A2 (Homo sapiens, UniProt P05177); assay: Inhibition of CYP1A2 (unknown origin); assay type: ADME
T2 sequence (P05177 whole entry): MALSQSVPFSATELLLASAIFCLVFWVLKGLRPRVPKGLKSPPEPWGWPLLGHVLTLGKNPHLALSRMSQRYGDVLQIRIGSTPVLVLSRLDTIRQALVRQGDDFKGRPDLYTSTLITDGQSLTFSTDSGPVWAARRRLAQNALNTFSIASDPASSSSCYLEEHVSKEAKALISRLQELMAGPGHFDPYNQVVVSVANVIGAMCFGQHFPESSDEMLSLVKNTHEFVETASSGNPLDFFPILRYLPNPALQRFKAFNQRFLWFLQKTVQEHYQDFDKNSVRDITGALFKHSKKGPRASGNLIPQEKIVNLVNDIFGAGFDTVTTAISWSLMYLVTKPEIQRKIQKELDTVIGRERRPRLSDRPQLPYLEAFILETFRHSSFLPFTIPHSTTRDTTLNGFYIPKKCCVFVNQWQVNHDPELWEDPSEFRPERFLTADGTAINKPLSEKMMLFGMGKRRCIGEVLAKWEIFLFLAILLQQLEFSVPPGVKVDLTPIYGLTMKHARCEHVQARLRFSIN

[25] = MRT in Sprague-Dawley rat at 10 mg/kg, iv by LC-MS/MS analysis; assay type: ADME, organism-based; conditions: in vivo
[26] = tested on: Human immunodeficiency virus 1; assay: microbe, parasite or virus in culture; conditions: Human immunodeficiency virus 1, Ba-L, HOS, 120 h
Description: Antiviral activity against CCR5-dependent HIV1 Ba-L infected in human HOS cells assessed as reduction in virus infection measured after 5 days by luciferase reporter gene assay

Cytochrome P450 2D6 = Cytochrome P450 2D6 (Homo sapiens, UniProt P10635); assay: Inhibition of CYP2D6 (unknown origin); assay type: ADME
Sequence of Cytochrome P450 2D6 (P10635 whole entry): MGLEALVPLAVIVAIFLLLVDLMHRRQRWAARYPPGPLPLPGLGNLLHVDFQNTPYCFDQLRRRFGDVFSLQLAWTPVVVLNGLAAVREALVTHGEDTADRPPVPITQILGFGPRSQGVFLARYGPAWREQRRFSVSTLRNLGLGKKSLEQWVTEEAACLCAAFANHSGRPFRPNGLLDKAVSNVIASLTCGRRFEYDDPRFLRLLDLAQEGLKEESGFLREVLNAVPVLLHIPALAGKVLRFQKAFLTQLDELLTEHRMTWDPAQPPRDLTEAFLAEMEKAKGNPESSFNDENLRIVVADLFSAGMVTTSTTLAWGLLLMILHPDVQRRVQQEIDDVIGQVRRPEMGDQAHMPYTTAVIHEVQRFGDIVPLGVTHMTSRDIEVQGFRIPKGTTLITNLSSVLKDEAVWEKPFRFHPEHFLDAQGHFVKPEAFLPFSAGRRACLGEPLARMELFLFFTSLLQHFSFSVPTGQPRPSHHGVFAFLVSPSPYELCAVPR

[27] = tested on: Human immunodeficiency virus 1; assay: microbe, parasite or virus in culture; conditions: Human immunodeficiency virus 1, SF162, HOS, 120 h
Description: Antiviral activity against CCR5-dependent HIV1 SF162 infected in human HOS cells assessed as reduction in virus infection measured after 5 days by luciferase reporter gene assay

[28] = tested on: Human immunodeficiency virus 1; assay: microbe, parasite or virus in culture; conditions: Human immunodeficiency virus 1, Ba-L, PBMC, 168 h
Description: Antiviral activity against CCR5-dependent HIV1 Ba-L infected in human PBMC assessed as reduction in virus infection measured 7 days by luciferase reporter gene assay

Cytochrome P450 2C9 = Cytochrome P450 2C9 (Homo sapiens, UniProt P11712); assay: Inhibition of CYP2C9 (unknown origin); assay type: ADME
Sequence of Cytochrome P450 2C9 (P11712 whole entry): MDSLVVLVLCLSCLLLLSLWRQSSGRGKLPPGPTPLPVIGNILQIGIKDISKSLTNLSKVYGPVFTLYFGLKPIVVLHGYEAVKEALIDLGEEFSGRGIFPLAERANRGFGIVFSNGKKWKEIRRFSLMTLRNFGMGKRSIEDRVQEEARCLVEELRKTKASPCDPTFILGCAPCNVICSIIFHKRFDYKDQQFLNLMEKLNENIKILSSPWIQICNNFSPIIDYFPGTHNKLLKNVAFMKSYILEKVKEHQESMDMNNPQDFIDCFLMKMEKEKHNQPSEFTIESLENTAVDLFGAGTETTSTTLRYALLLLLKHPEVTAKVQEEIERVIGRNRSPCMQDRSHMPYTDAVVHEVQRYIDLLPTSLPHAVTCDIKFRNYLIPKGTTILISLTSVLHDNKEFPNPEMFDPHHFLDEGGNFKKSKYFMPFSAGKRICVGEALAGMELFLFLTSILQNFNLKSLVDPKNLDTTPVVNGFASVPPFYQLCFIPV

[29] = MRT in Sprague-Dawley rat at 20 mg/kg, po by LC-MS/MS analysis; assay type: ADME, organism-based; conditions: in vivo
[30] = molecular target: Voltage-gated inwardly rectifying potassium channel KCNH2 (Homo sapiens, UniProt Q12809); assay: Inhibition of human ERG expressed in CHO cells at holding potential of -80 mV after 60 secs by patch clamp assay; assay type: cell-based
Sequence of Voltage-gated inwardly rectifying potassium channel KCNH2 (Q12809 whole entry): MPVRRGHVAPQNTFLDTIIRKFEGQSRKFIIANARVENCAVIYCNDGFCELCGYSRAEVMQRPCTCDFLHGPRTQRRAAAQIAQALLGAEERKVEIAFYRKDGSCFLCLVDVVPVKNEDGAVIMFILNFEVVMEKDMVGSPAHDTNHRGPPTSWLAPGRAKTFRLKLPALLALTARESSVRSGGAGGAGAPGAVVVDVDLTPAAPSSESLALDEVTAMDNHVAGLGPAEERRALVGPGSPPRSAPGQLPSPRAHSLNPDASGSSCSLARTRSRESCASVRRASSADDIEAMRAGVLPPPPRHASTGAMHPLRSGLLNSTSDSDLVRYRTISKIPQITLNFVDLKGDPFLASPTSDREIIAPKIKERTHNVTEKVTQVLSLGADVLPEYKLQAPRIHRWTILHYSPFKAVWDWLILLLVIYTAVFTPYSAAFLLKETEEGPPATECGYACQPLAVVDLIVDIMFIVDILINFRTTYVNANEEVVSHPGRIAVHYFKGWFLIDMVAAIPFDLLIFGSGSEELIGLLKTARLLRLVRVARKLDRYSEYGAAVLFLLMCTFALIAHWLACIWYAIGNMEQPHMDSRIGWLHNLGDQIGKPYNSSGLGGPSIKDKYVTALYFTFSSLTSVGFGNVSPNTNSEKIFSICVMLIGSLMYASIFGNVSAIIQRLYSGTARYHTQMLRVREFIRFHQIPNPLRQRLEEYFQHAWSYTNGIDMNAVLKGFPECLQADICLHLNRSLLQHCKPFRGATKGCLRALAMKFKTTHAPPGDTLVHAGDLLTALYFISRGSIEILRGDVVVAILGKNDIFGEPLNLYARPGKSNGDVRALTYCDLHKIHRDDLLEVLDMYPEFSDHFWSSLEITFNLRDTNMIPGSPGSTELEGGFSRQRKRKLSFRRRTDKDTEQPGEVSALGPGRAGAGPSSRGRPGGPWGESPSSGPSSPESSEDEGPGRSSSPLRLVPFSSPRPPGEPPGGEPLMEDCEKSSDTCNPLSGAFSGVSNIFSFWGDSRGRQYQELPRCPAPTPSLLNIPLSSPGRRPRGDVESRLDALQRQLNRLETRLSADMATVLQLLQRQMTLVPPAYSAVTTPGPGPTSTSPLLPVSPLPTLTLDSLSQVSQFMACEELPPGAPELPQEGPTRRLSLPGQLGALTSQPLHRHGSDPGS

[31] = Oral bioavailability in Sprague-Dawley rat at 20 mg/kg by LC-MS/MS analysis; assay type: ADME, organism-based; conditions: in vivo
[32] = Half life in dog at 3 mg/kg, iv by LC-MS/MS analysis; assay type: ADME, organism-based, Canis lupus familiaris; conditions: in vivo
[33] = Tmax in dog at 15 mg/kg, po by LC-MS/MS analysis; assay type: ADME, organism-based, Canis lupus familiaris; conditions: in vivo
[34] = AUC (0 to infinity) in dog at 3 mg/kg, iv by LC-MS/MS analysis; assay type: ADME, organism-based, Canis lupus familiaris; set-up: dose 3 mg/kg, route intravenous, time infinity; conditions: in vivo
[35] = Clearance in dog at 3 mg/kg, iv by LC-MS/MS analysis; assay type: ADME, organism-based, Canis lupus familiaris; conditions: in vivo
[36] = Oral bioavailability in dog at 15 mg/kg by LC-MS/MS analysis; assay type: ADME, organism-based, Canis lupus familiaris; conditions: in vivo
[37] = MRT in dog at 3 mg/kg, iv by LC-MS/MS analysis; assay type: ADME, organism-based, Canis lupus familiaris; conditions: in vivo
[38] = Cmax in dog at 15 mg/kg, po by LC-MS/MS analysis; assay type: ADME, organism-based, Canis lupus familiaris; set-up: dose 15 mg/kg, route oral; conditions: in vivo
[39] = AUC (0 to infinity) in dog at 15 mg/kg, po by LC-MS/MS analysis; assay type: ADME, organism-based, Canis lupus familiaris; set-up: dose 15 mg/kg, time infinity, route oral; conditions: in vivo
[40] = Half life in dog at 15 mg/kg, po by LC-MS/MS analysis; assay type: ADME, organism-based, Canis lupus familiaris; conditions: in vivo
[41] = MRT in dog at 15 mg/kg, po by LC-MS/MS analysis; assay type: ADME, organism-based, Canis lupus familiaris; conditions: in vivo

## Cc1nnc(C(C)C)n1[C@@H]1C[C@H]2CC[C@@H](C1)N2CC[C@H](NC(=O)C1CCC(F)(F)CC1)c1cccs1
[1]
  IC50: 6.2 nM
[2]
  half-life: 0.77 h
[3]
  Cmax: 266 ng/mL
[4]
  CC50 at 48 h: > 200000 nM
[5]
  AUC(0-inf): 1110 ng·h/mL
Cytochrome P450 3A4 [6]
  IC50: > 25000 nM
[7]
  Tmax: 0.25 h
[8]
  AUC(0-inf): 7050 ng·h/mL
In vitro [9]
  selectivity ratio: 28000
[10]
  IC50: 4.8 nM
In vitro [11]
  selectivity ratio: 99000
In vitro [12]
  selectivity ratio: 56000
[13]
  Tmax: 4 h
In vitro [14]
  selectivity ratio: 92000
[15]
  clearance: 23.7 mL/min/kg
Cytochrome P450 2C19
  IC50: > 25000 nM
Cytochrome P450 3A4 [16]
  IC50: > 25000 nM
[17]
  IC50: 3.6 nM
[18]
  half-life: 2.1 h
[19]
  IC50: 9.1 nM
[20]
  Cmax: 6840 ng/mL
In vitro [21]
  selectivity ratio: > 55000
In vitro [22]
  selectivity ratio: 100000
In vitro [23]
  selectivity ratio: 9400
[24]
  IC50: 2.9 nM
Cytochrome P450 1A2
  IC50: > 25000 nM
[25]
  MRT: 0.7 h
[26]
  IC50: 3.6 nM
Cytochrome P450 2D6
  IC50: > 25000 nM
[27]
  IC50: 13.1 nM
[28]
  IC50: 28.5 nM
Cytochrome P450 2C9
  IC50: > 25000 nM
[29]
  MRT: 3.3 h
[30]
  IC50: 3500 nM
[31]
  bioavailability: 7.8%

## Cc1nnc(C(C)C)n1[C@@H]1C[C@H]2CC[C@@H](C1)N2CC[C@H](NC(=O)C1CCCC1)c1cccs1
[1]
  IC50: 3.4 nM
[2]
  half-life: 1.31 h
[3]
  Cmax: 436 ng/mL
[4]
  CC50 at 48 h: > 200000 nM
[5]
  AUC(0-inf): 1670 ng·h/mL
Cytochrome P450 3A4 [6]
  IC50: > 25000 nM
[7]
  Tmax: 0.25 h
[8]
  AUC(0-inf): 2500 ng·h/mL
In vitro [9]
  selectivity ratio: 25000
[32]
  half-life: 0.9 h
[10]
  IC50: 190 nM
In vitro [11]
  selectivity ratio: 220000
In vitro [12]
  selectivity ratio: 4000
[33]
  Tmax: 0.8 h
[13]
  Tmax: 2 h
In vitro [14]
  selectivity ratio: 6100
[34]
  AUC(0-inf): 1100 ng·h/mL
[15]
  clearance: 66.5 mL/min/kg
Cytochrome P450 2C19
  IC50: > 25000 nM
Cytochrome P450 3A4 [16]
  IC50: > 25000 nM
[17]
  IC50: 1.3 nM
[18]
  half-life: 1.65 h
[19]
  IC50: 3.1 nM
[20]
  Cmax: 2220 ng/mL
[35]
  clearance: 46.7 mL/min/kg
[36]
  bioavailability: 38.1%
In vitro [21]
  selectivity ratio: > 150000
[37]
  MRT: 0.7 h
[38]
  Cmax: 1160 ng/mL
In vitro [22]
  selectivity ratio: 330000
In vitro [23]
  selectivity ratio: 5900
[24]
  IC50: 123 nM
Cytochrome P450 1A2
  IC50: > 25000 nM
[25]
  MRT: 0.91 h
[26]
  IC50: 1.6 nM
Cytochrome P450 2D6
  IC50: 16800 nM
[27]
  IC50: 21 nM
[28]
  IC50: 127 nM
[39]
  AUC(0-inf): 2160 ng·h/mL
Cytochrome P450 2C9
  IC50: > 25000 nM
[29]
  MRT: 3.02 h
[40]
  half-life: 2.5 h
[30]
  IC50: 1520 nM
[31]
  bioavailability: 33.4%
[41]
  MRT: 2.4 h

## Cc1ccc([C@H](CCN2[C@@H]3CC[C@H]2C[C@H](n2c(C)nnc2C(C)C)C3)NC(=O)C2CCC(F)(F)CC2)s1
[1]
  IC50: 14.9 nM
[2]
  half-life: 1.6 h
[3]
  Cmax: 580 ng/mL
[4]
  CC50 at 48 h: > 200000 nM
[5]
  AUC(0-inf): 1870 ng·h/mL
Cytochrome P450 3A4 [6]
  IC50: 23400 nM
[7]
  Tmax: 0.25 h
[8]
  AUC(0-inf): 2330 ng·h/mL
In vitro [9]
  selectivity ratio: > 11000
[10]
  IC50: 126 nM
In vitro [11]
  selectivity ratio: > 13000
In vitro [12]
  selectivity ratio: > 1600
[13]
  Tmax: 2 h
In vitro [14]
  selectivity ratio: > 29000
[15]
  clearance: 71.7 mL/min/kg
Cytochrome P450 2C19
  IC50: > 25000 nM
Cytochrome P450 3A4 [16]
  IC50: 10900 nM
[17]
  IC50: 11.5 nM
[18]
  half-life: 32.8 h
[19]
  IC50: 2.8 nM
[20]
  Cmax: 1690 ng/mL
In vitro [21]
  selectivity ratio: > 17000
In vitro [22]
  selectivity ratio: > 18000
In vitro [23]
  selectivity ratio: > 833
[24]
  IC50: 6.7 nM
Cytochrome P450 1A2
  IC50: > 25000 nM
[25]
  MRT: 2.3 h
[26]
  IC50: 11.4 nM
Cytochrome P450 2D6
  IC50: > 25000 nM
[27]
  IC50: 18.8 nM
[28]
  IC50: 240 nM
Cytochrome P450 2C9
  IC50: > 25000 nM
[29]
  MRT: 4.8 h
[30]
  IC50: 3380 nM
[31]
  bioavailability: 40.1%
